# Data reported in patent US20160287646A1, “MACROALGAE COMPOSITIONS, PROCESSES FOR PREPARATION THEREOF, AND USES IN SPORTS NUTRITION” (OmniActive Health Technologies (Canada) Limited, priority 2015, published 2016).
# Columns and labels:
# [1] = test system: C2C12 cells; assay: Mitochondrial mass (NAO probe fluorescence) in differentiated C2C12 cells; type: cell-based, mouse; settings: fluorescent intensity relative to untreated control
# Method: (§1) Mouse skeletal myoblasts C2C12 cells were used as a cell model to assess mitochondrial function and IGF-1 expression. Cells were cultured as undifferentiated myoblasts in high-serum growth media DMEM (Dulbecco's Modified Eagle Medium), supplemented with 10% FBS (Fetal bovine serum) and 1% penicillin/streptomycin. Cells were grown to full confluency at 37° C. in a humidified incubator with 5% CO2.
# The effect of treatment with macroalgae composition on mitochondrial mass was assessed by measuring changes in fluorescent intensity in differentiated C2C12 cells. The nonylacridine orange (NAO) probe binds to cardiolipin in all mitochondria, regardless of their energetic state, providing a measure of mitochondrial mass and an indication of mitochondrial biogenesis. C2C12 cells were seeded in 96-well culture plates at a density of 2×10^4 cells/mL, induced to differentiate, and pre-treated with or without select macroalgae composition and controls. […] Probe fluorescence was measured (excitation 380 nm, emission 645 nm) using a fluorescence plate reader. Fluorescent intensity relative to untreated control was then calculated. To standardize probe fluorescence to protein content of the cells, total protein content (in μg) was assessed by bicinchoninic acid (BCA) using bovine serum albumin as standard.
# [2] = test system: C2C12 cells; assay: Mitochondrial oxygen consumption (MitoXpress probe) in differentiated C2C12 cells; type: cell-based, mouse; settings: macroalgae composition 100 ug/ml
# Method: as §1
# Extracellular oxygen consumption in differentiated C2C12 cells was measured by assessing phosphorescence of a porphyrin-based, water soluble, oxygen sensitive probe (MitoXpress®-Xtra-HS, Luxcel Biosciences). Probe fluorescence is quenched by molecular oxygen (O2), resulting in lower probe signal. As cellular respiration reduces the concentration of O2, probe signal increases. The rate of this increase is related to the rate of cellular oxygen consumption. C2C12 cells were seeded in 96-well culture plates at a density of 2×10^4 cells/mL, induced to differentiate, and incubated with MitoXpress probe ([…] the presence or absence of macroalgae composition (100 ug/ml). High sensitivity mineral oil was added (100 μL/well) to increase assay sensitivity by minimizing interference from ambient O2. Probe fluorescence was measured (excitation 380 nm, emission 645 nm) using a fluorescence plate reader.
# [3] = test system: insulin-like growth factor-1 (IGF-1); assay: IGF-1 ELISA in differentiated C2C12 cells; type: cell-based, mouse; settings: cell culture supernatants
# Method: as §1
# To evaluate the effect of treatment with macroalgae composition on insulin-like growth factor-1 (IGF-1) concentrations in differentiated C2C12 cells, the mouse IGF-1 enzyme-linked immunosorbent assay (ELISA) kit (Sigma) was utilized. The kit provides a quantitative measurement of mouse IGF-1 in cell culture supernatants by employing an antibody specific coated 96-well plate. Standards and samples were added to the coated plate and any IGF-1 present in the sample bound to the immobilized antibody. After washing away any unbound antibody, HRP-conjugated streptavidin was added to the wells. The wells were washed again, followed by addition of a colorimetric TMB reagent. Color developed in proportion to the amount of bound IGF-1. Addition of a stop solution changed the color from blue to yellow, and the color intensity was read at A450 with a microplate reader. Blank-corrected unknown sample protein concentrations were then extrapolated from a known standard curve.
# [4] = test system: H295R cells; assay: Cortisol production immunoassay in H295R cells; type: cell-based, human; settings: 24 h incubation
# Method: It is a human adrenal cell line that presents a steroid secretion pattern and regulation similar to primary cultures of adrenal cells.
# Cells were then incubated in the presence or absence of macroalgae composition for 24 h before assessing cortisol production.
# To evaluate the effect of treatment with macroalgae composition on cortisol concentrations in H295R cells, the DetectX® (Arbor Assays) immunoassay was utilized. A cortisol standard was provided to generate a standard curve for the assay and all samples were read off the standard curve. Standards or samples were pipetted into a clear microtiter plate coated with an antibody. A cortisol-peroxidase conjugate was added to the standards and samples in the wells. The binding reaction was initiated by the addition of a monoclonal antibody to cortisol to each well. After 1 hour incubation, the plate was washed and substrate was added. The substrate reacted with the bound cortisol-peroxidase conjugate. After a short incubation, the reaction was stopped and the intensity of the generated color was detected in a microtiter plate reader capable of measuring 450 nm wavelength. The concentration of cortisol in the samples was then calculated.
# [5] = test system: C2C12 cells; assay: Glucose uptake bioluminescent assay (2DG6P) in C2C12 cells; type: cell-based, mouse; settings: for Glucose Uptake - glucose + insulin: 25 mM glucose + 1 uM insulin, compared to non-treated samples (glucose only 100.0)
# Method: (§2) C2C12 cells (ATCC® CRL-1772) were seeded in 24- or 96-well culture plates as undifferentiated myoblasts and grown to 100% confluency in ATCC-formulated Dulbecco's Modified Eagle's Medium (DMEM) supplemented with 10% heat-inactivated fetal bovine serum (FBS). […] Differentiation medium consisted of ATCC-formulated DMEM supplemented with 2% heat-inactivated horse serum and was changed daily during the differentiation process. Cell culture conditions were maintained at 37° C. in a humidified atmosphere of 5% CO2/95% air. After 5 days of differentiation, cells were incubated in the presence or absence of macroalgae composition (with control). Cells were treated with macroalgae compositions and also control samples to check effect on said biomarkers. The compositions and control samples used are mentioned in the respective table, showing results of the test. The effect of select macroalgae compositions were assessed using the following assays:
# (§3) Glucose uptake in C2C12 cells was determined by bioluminescent assay (Promega), based on the detection of 2-deoxyglucose-6-phosphate (2DG6P). When […] to cells, it is transported across the membrane and rapidly phosphorylated. However, further modification is not possible, resulting in accumulation within the cell. Addition of a 2DG6P detection reagent, leading to the generation of NADPH from 2DG6P, luciferin from NADPH, and light from luciferin, allows for detection of a bioluminescent signal. Overall, the luminescent signal is proportional to the concentration of 2DG6P, and thus the rate of glucose uptake. Glycogen synthesis was determined in cell culture lysates from differentiated C2C12 cells using a colorimetric assay kit from BioVision Inc. This involves the addition of glucoamylase to the samples that hydrolyzes glycogen to glucose; the glucose is then oxidized to form an intermediate that reduces OxiRed, forming a colored product with strong absorbance at 570 nm.
# [6] = test system: C2C12 cells; assay: Glycogen synthesis colorimetric assay in differentiated C2C12 cells; type: cell-based, mouse; settings: for Glycogen Content - glucose + insulin: 30 mM glucose + 100 nM insulin, compared to non-treated samples (glucose only 100.0); for Glycogen Content - glucose only: 30 mM glucose, compared to non-treated samples (100.0)
# Method: as §2, §3
# [7] = test system: Akt; assay: BioPlex cell signaling assay, relative phosphorylation of Akt (PKB) in C2C12 cells; type: cell-based, mouse; settings: differentiated C2C12 cells pre-treated 2 hours; ratio of fluorescence of phospho-protein to total protein
# Method: (§4) The effects of macroalgae composition on biomarkers of sport nutrition based on protein synthesis platform were evaluated, wherein the compositions were tested with an initial MTT assay (MIT is a name of dye 3-(4,5-dimethylthiazol-2-yl)-2,5-diphenyltetrazolium bromide) to determine cytotoxicity and establish dose range for testing.
# (§5) Test inputs chosen for the protein synthesis assay platform were assessed using BioPlex (BioRad) cell signaling assays, based on the principle of the sandwich ELISA. Capture antibodies directed against the desired biomarker were covalently coupled to magnetic beads, which reacted with the sample containing the biomarker of interest. After a series of wash steps to remove any unbound protein, a biotinylated detection antibody was added to create a “sandwich” complex. The final detection complex was formed with the addition of a streptavidin-phycoerythrin (SA-PE) conjugate, which serves as a fluorescent indicator. […] The beads were then re-suspended in assay buffer and read on the BioPlex MAGPIX system. […]
# (§6) Phospho-PKB/PKB, Phospho-mTOR/mTOR, Phospho-p70S6k/p70S6k, their effects were more pronounced than creatine or whey protein. In Table 3 below, Phospho-PKB/PKB, Phospho-mTOR/mTOR, and Phospho-p70S6k/p70S6k are expressed as a ratio of the fluorescence of the phospho-protein divided by the fluorescence of the total protein.
# [8] = test system: mTOR (the mammalian target of rapamycin); assay: BioPlex cell signaling assay, relative phosphorylation of mTOR in C2C12 cells; type: cell-based, mouse; settings: differentiated C2C12 cells pre-treated 2 hours; ratio of fluorescence of phospho-protein to total protein
# Method: as §4, §5, §6
# [9] = test system: p70S6k; assay: BioPlex cell signaling assay, relative phosphorylation of p70S6k in C2C12 cells; type: cell-based, mouse; settings: differentiated C2C12 cells pre-treated 2 hours; ratio of fluorescence of phospho-protein to total protein
# Method: as §4, §5, §6
# [10] = test system: C2C12 cells; assay: ATP production colorimetric assay in C2C12 myotubes; type: cell-based, mouse; settings: extracts 100 ug/mL, caffeine 500 uM, creatine 1 uM, control 99.99
# Method: as §2, with “Cells were treated with macroalgae compositions and also control samples to check effect on said biomarkers. The compositions and control samples used are mentioned in the respective table, showing results of the test.” left out
# To evaluate the effect of macroalgae composition on ATP levels, colorimetric assay kit (Sigma-Aldrich, St. Louis, Mo.) was used, which is an enzyme-linked approach that involves the conversion of ATP in the test sample to ADP via the action of glycerol kinase which catalyses the transfer of the phosphate group to glycerol. The reaction was monitored by use of colorimetric product whose concentration varies proportional to the amount of ATP present. […] After 30 minutes, the absorbance at 570 nm will be measured using a microplate reader, and ATP concentrations will be extrapolated from a standard curve.
# [11] = test system: PGC-1α; assay: PGC-1alpha ELISA in differentiated C2C12 cells; type: cell-based, mouse; settings: overnight treatment, extracts 100 ug/mL, caffeine 500 uM, resveratrol 100 uM, control 100.01
# Method: as §2, with “assays: Concentrations of PGC-1α in differentiated C2C12 cells as a result of treatment with macroalgae composition were determined by ELISA (MyBiosource). Following overnight treatment, cell lysates were collected and centrifuged to remove cellular debris. […] The amount of PGC-1α captured by the anti-PGC-1α antibody was determined using a biotinylated-IgG antibody/HRP-streptavidin detection system.” for “assays:”
Molecule,Mitochondrial Mass [1],Mitochondrial Oxygen consumption [2],IGF-1 [3],Cortisol [4],Glucose Uptake - glucose + insulin [5] [%],Glycogen Content - glucose + insulin [6] [%],Glycogen Content - glucose only [6] [%],Phospho-PKB/PKB [7],Phospho-mTOR/mTOR [8],Phospho-p70S6k/p70S6k [9],"ATP production, Relative to Control [10]","PGC1-alpha production, Relative to Control [11]","Glucose (G) Uptake - glucose only ([5]; 25 mM glucose, compared to non-treated samples (100.0)) [%]"
CC(C)C[C@H](N)C(=O)O [Leucine],157,144,127,65.3,203.7,158.2,111.1,,,,,,
CN(CC(=O)O)C(=N)N [Creatine],,,,,,,,191,192,162,233.17,,
Insulin: control in protein synthesis assay; co-stimulus in glucose uptake and glycogen assays,,,,,189.5,153.6,,315,311,241,,,
Oc1ccc(C=Cc2cc(O)cc(O)c2)cc1 [Resveratrol],,,,,291.0,223.9,142.9,,,,,220.96,132.4
Cn1c(=O)c2c(ncn2C)n(C)c1=O [Caffeine],146,157,130,65,198.7,164.7,115.3,,,,225.83,192.96,
